Experimental data reported in patent publication US20100210558A1, “MINIGASTRIN AS A THERAPEUTIC AGENT” (priority 2007, published 2010).
Where no end group is shown, it is not given here.

Test system: drug-resistant Mycobacterium tuberculosis
Details: 5 micrograms per ml

## LEEEEEAYGWMDF-NH2 [Minigastrin I]
  % inhibition: 0.0%
